Test results published in paper PMC4234427 (Journal of Medicinal Chemistry, 2014).

Key:
h-CB2R = h-CB2R (Homo sapiens, UniProt P34972); settings: classification from β-arrestin 2 (and cAMP) assays
hCB2R [1] = target: T1, hCB2R (Homo sapiens, UniProt P34972); assay: forskolin-stimulated cAMP assay; format: cell-based; settings: for cAMP (CB2R) EC50/IC50 (nM): EC50: agonist mode, inhibition of forskolin (10 μM) mediated cAMP production
hCB2R [2] = target: T1, hCB2R; assay: CB2R competitive radioligand binding assay; settings: selectivity ratio
[3] = solubility under the cAMP assay test conditions; format: physicochemical; settings: functional cAMP assay conditions

Chain of h-CB2R (P34972 whole entry): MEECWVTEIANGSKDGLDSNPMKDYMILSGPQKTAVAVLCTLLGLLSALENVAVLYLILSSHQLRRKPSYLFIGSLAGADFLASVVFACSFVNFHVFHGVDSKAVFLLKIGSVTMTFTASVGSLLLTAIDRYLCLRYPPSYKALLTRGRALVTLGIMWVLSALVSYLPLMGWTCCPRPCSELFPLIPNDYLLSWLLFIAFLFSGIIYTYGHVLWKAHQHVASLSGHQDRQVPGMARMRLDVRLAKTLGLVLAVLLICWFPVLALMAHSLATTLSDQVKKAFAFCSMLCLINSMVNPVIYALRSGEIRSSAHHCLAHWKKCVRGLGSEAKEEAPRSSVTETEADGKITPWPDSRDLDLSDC
T1 sequence (P34972 whole entry): as above

SMILES	functional activity at CB2R (h-CB2R)	Ki(CB1)/Ki(CB2) (hCB2R [2])	other results
CC1CCC(NC(=O)c2cc3cccnc3n(CCN3CCOCC3)c2=O)CC1 (centres unmarked) [A1]	agonists	–	cAMP (CB2R) EC50/IC50 (nM): EC50 (hCB2R [1]): 28.0 nM
CC1CCC(NC(=O)c2cc3cccnc3n(Cc3ccc(F)cc3)c2=O)CC1 (centres unmarked) [A2]	agonists	–	cAMP (CB2R) EC50/IC50 (nM): EC50 (hCB2R [1]): 29.6 nM
CC1CCC(NC(=O)c2cc3cccnc3n(CCO)c2=O)CC1 (centres unmarked) [Compound 3, 1-(2-Hydroxyethyl)-N-(4-methylcyclohexyl)-2-oxo-1,2-dihydro-1,8-naphthyridine-3-carboxamide]	–	>5	–
CC1CCC(NC(=O)c2cc3cccnc3n(CCCO)c2=O)CC1 (centres unmarked) [Compound 4, 1-(3-Hydroxypropyl)-N-(4-methylcyclohexyl)-2-oxo-1,2-dihydro-1,8-naphthyridine-3-carboxamide]	–	>77	–
CC1CCC(NC(=O)c2cc3cccnc3n(CCCCO)c2=O)CC1 (centres unmarked) [Compound 5, 1-(4-Hydroxybutyl)-N-(4-methylcyclohexyl)-2-oxo-1,2-dihydro-1,8-naphthyridine-3-carboxamide]	agonists	>187	solubility under the test conditions [3]: insoluble
CC1CCC(NC(=O)c2cc3cccnc3n(CCCCCO)c2=O)CC1 (centres unmarked) [Compound 6, 1-(5-Hydroxypentyl)-N-(4-methylcyclohexyl)-2-oxo-1,2-dihydro-1,8-naphthyridine-3-carboxamide]	–	>2778	–
CC1CCC(NC(=O)c2cc3cccnc3n(CCCCCCO)c2=O)CC1 (centres unmarked) [Compound 7, 1-(6-Hydroxyhexyl)-N-(4-methylcyclohexyl)-2-oxo-1,2-dihydro-1,8-naphthyridine-3-carboxamide]	–	>554	–
CCOC(=O)CCn1c(=O)c(C(=O)NC2CCC(C)CC2)cc2cccnc21 (centres unmarked) [Compound 8, Ethyl 3-(3-(4-Methylcyclohexylcarbamoyl)-2-oxo-1,8-naphthyridin-1(2H)-yl)propanoate]	–	>57	–
CCOC(=O)CCCn1c(=O)c(C(=O)NC2CCC(C)CC2)cc2cccnc21 (centres unmarked) [Compound 9, Ethyl 4-(3-(4-Methylcyclohexylcarbamoyl)-2-oxo-1,8-naphthyridin-1(2H)-yl)butanoate]	–	>160	–
COC(=O)CCCCn1c(=O)c(C(=O)NC2CCC(C)CC2)cc2cccnc21 (centres unmarked) [Compound 10, Methyl 5-(3-(4-Methylcyclohexylcarbamoyl)-2-oxo-1,8-naphthyridin-1(2H)-yl)pentanoate]	–	>369	–
CC1CCC(NC(=O)c2cc3cccnc3n(CCC(=O)O)c2=O)CC1 (centres unmarked) [Compound 11, 3-(3-(4-Methylcyclohexylcarbamoyl)-2-oxo-1,8-naphthyridin-1(2H)-yl)propanoic Acid]	–	>7	–
CC1CCC(NC(=O)c2cc3cccnc3n(CCCC(=O)O)c2=O)CC1 (centres unmarked) [Compound 12, 4-(3-(4-Methylcyclohexylcarbamoyl)-2-oxo-1,8-naphthyridin-1(2H)-yl)butanoic Acid]	–	>4	–
CC1CCC(NC(=O)c2cc3cccnc3n(CCCCC(=O)O)c2=O)CC1 (centres unmarked) [Compound 13, 5-(3-(4-Methylcyclohexylcarbamoyl)-2-oxo-1,8-naphthyridin-1(2H)-yl)pentanoic Acid]	–	>7	–
CC1CCC(NC(=O)c2cc3cccnc3n(CCCCF)c2=O)CC1 (centres unmarked) [Compound 14, 1-(4-Fluorobutyl)-1,2-dihydro-N-(4-methylcyclohexyl)-2-oxo-1,8-naphthyridine-3-carboxamide]	agonists	–	cAMP (CB2R) EC50/IC50 (nM): EC50 (hCB2R [1]): 20.6 nM
CC1CCC(NC(=O)c2cc3cc(Br)cnc3n(Cc3ccc(F)cc3)c2=O)CC1 (centres unmarked) [Compound 17, 6-Bromo-1-(4-fluorobenzyl)-N-(4-methylcyclohexyl)-2-oxo-1,2-dihydro-1,8-naphthyridine-3-carboxamide]	inverse agonists as well as antagonists	–	solubility under the test conditions [3]: insoluble
CC1CCC(NC(=O)c2cc3cc(Br)cnc3n(CCN3CCOCC3)c2=O)CC1 (centres unmarked) [Compound 18, 6-Bromo-N-(4-methylcyclohexyl)-1-(2-morpholinoethyl)-2-oxo-1,2-dihydro-1,8-naphthyridine-3-carboxamide]	inverse agonists as well as antagonists	–	cAMP (CB2R) EC50/IC50 (nM): IC50 (hCB2R [1]; antagonist mode, inhibition of response to WIN-55,212-2 (30 nM) with forskolin): 59.6 nM
CC1CCC(NC(=O)c2cc3cc(-c4ccc(F)cc4)cnc3n(Cc3ccc(F)cc3)c2=O)CC1 (centres unmarked) [Compound 21, 1-(4-Fluorobenzyl)-6-(4-fluorophenyl)-N-(4-methyl-cyclohexyl)-2-oxo-1,2-dihydro-1,8-naphthyridine-3-carboxamide]	–	>4608	–
C[C@H]1CC[C@@H](NC(=O)c2cc3cc(-c4ccco4)cnc3n(Cc3ccc(F)cc3)c2=O)CC1 [Compound 22-cis, cis-1-(4-Fluorobenzyl)-6-(furan-2-yl)-N-(4-methylcyclohexyl)-2-oxo-1,2-dihydro-1,8-naphthyridine-3-carboxamide]	–	15 022	–
C[C@H]1CC[C@H](NC(=O)c2cc3cc(-c4ccco4)cnc3n(Cc3ccc(F)cc3)c2=O)CC1 [Compound 22-trans, trans-1-(4-Fluorobenzyl)-6-(furan-2-yl)-N-(4-methylcyclohexyl)-2-oxo-1,2-dihydro-1,8-naphthyridine-3-carboxamide]	–	>106	–
COc1ccc(-c2cnc3c(c2)cc(C(=O)NC2CCC(C)CC2)c(=O)n3CCN2CCOCC2)cc1 (centres unmarked) [Compound 23, 6-(4-Methoxyphenyl)-N-(4-methylcyclohexyl)-1-(2-morpholinoethyl)-2-oxo-1,2-dihydro-1,8-naphthyridine-3-carboxamide]	inverse agonists as well as antagonists	>6802	solubility under the test conditions [3]: insoluble
